From US20250215012A1, “IKZF2 DEGRADERS AND USES THEREOF” (REGENTS OF THE UNIVERSITY OF MICHIGAN, priority 2022, published 2025)

Target: IKZF2 (Homo sapiens (Human), UniProt Q96SW2+Q9UKS7)
Assay: IKZF2 HiBiT Assay (Jurkat-IKZF2-HiBiT cell line)
Assay type: cell-based
Details: Jurkat-IKZF2-HiBiT cells, 24 hours; for DC50: read-out: HiBit assay degradation analysis DC50; for Dmax: read-out: HiBit assay degradation analysis Dmax
Procedure, shortened: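 IKZF2 degradation was assessed as HiBiT luminescence in Jurkat-IKZF2-HiBiT cells, using lytic detection after 24 h of compound treatment at 37 °C, 5% CO2.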

Sequence of IKZF2 (Q9UKS7 whole entry): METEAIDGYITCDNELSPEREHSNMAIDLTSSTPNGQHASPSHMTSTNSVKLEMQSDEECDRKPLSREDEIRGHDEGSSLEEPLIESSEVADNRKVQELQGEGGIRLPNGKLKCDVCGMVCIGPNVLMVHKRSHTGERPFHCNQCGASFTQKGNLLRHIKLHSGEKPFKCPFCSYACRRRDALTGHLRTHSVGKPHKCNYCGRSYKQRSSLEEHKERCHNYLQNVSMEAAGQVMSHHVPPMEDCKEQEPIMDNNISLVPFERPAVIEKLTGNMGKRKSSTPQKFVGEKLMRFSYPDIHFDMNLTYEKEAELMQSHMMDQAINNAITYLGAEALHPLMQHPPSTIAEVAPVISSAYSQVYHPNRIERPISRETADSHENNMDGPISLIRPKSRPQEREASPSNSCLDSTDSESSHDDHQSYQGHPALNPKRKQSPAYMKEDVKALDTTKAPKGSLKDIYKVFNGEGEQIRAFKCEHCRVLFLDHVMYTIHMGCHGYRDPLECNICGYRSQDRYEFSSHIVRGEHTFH
Sequence of IKZF2 (Q96SW2 whole entry): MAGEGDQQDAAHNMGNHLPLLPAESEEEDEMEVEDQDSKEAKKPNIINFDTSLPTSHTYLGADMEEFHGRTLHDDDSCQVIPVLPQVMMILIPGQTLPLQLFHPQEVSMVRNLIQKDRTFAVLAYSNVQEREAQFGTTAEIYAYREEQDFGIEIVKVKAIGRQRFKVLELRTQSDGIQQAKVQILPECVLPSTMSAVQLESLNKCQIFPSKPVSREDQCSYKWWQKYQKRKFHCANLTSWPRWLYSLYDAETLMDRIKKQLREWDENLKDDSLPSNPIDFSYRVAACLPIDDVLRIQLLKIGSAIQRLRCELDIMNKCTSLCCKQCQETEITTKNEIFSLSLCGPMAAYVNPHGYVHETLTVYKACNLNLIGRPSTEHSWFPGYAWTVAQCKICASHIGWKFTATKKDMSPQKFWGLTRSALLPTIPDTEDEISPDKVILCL
Sequence of IKZF2 (Q16531 whole entry partner): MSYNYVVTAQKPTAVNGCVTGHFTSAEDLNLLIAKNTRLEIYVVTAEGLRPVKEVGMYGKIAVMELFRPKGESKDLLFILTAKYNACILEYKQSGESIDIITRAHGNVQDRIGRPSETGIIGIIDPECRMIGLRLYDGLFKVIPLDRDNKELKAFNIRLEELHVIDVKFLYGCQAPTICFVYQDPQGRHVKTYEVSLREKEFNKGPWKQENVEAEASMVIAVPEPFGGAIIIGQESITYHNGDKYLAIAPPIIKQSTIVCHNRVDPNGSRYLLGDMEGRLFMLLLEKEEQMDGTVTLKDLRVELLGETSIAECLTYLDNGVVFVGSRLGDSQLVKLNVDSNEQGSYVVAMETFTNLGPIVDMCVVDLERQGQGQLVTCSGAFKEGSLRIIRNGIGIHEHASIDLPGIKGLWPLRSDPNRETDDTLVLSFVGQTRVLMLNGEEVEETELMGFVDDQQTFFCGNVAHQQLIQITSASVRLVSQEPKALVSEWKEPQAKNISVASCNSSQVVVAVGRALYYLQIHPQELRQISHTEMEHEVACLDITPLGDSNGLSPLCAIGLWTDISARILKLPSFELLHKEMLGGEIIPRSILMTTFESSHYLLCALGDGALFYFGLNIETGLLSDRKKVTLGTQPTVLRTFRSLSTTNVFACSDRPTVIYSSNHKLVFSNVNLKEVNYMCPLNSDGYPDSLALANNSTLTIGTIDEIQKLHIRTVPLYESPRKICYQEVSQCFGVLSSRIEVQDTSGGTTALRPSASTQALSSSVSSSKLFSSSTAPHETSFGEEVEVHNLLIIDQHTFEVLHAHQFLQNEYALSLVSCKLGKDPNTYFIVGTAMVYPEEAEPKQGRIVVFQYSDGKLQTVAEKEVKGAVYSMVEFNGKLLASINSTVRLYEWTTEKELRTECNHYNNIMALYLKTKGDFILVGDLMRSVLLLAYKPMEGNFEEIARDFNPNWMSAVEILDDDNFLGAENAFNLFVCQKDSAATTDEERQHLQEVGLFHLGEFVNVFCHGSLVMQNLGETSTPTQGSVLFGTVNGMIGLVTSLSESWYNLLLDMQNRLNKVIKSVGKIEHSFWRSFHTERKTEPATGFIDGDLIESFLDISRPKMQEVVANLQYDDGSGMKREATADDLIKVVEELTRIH

Structure (SMILES)	DC50	Dmax
O=C1CCC(N2Cc3c(ccc4c3OCC43CCN(Cc4ccc5c(c4)NC(=O)CO5)CC3)C2=O)C(=O)N1 (stereo not shown) [Compound A153, 3-(6-oxo-1′-((3-oxo-3,4-dihydro-2H-benzo[b][1,4]oxazin-6-yl)methyl)-6,8-dihydro-2H,7H-spiro[furo[2,3-e]isoindole-3,4′-piperidin]-7-yl)piperidine-2,6-dione]	50 to 200 nM	60 to 80%
O=C1CCC(N2Cc3c(ccc4c3OCC43CCN(Cc4ccccc4Cl)CC3)C2=O)C(=O)N1 (stereo not shown) [Compound A214, 3-(1′-(2-chlorobenzyl)-6-oxo-6,8-dihydro-2H,7H-spiro[furo[2,3-e]isoindole-3,4′-piperidin]-7-yl)piperidine-2,6-dione]	200 to 500 nM	40 to 60%
N#Cc1ccc(-n2cc(CN3CCC4(CC3)COc3c4ccc4c3CN([C@H]3CCC(=O)NC3=O)C4=O)cn2)cc1 [Compound A359, (S)-4-(4-((7-(2,6-dioxopiperidin-3-yl)-6-oxo-7,8-dihydro-2H,6H-spiro[furo[2,3-e]isoindole-3,4′-piperidin]-1′-yl)methyl)-1H-pyrazol-1-yl)benzonitrile]	< 50 nM	60 to 80%
[2H]C([2H])([2H])n1cc2ccc(CN3CCC4(CC3)COc3c4ccc4c3CN([C@H]3CCC(=O)NC3=O)C4=O)cc2n1 [Compound A301, (S)-3-(1′-((2-(methyl-d3)-2H-indazol-6-yl)methyl)-6-oxo-6,8-dihydro-2H,7H-spiro[furo[2,3-e]isoindole-3,4′-piperidin]-7-yl)piperidine-2,6-dione]	< 50 nM	60 to 80%
O=C1CC[C@H](N2Cc3c(ccc4c3OCC43CCN(Cc4cccc(-c5cc[nH]n5)c4)CC3)C2=O)C(=O)N1 [Compound A290, (S)-3-(1′-(3-(1H-pyrazol-3-yl)benzyl)-6-oxo-6,8-dihydro-2H,7H-spiro[furo[2,3-e]isoindole-3,4′-piperidin]-7-yl)piperidine-2,6-dione]	< 50 nM	60 to 80%
O=C1CCC(N2Cc3c(ccc4c3OCC43CCN(Cc4ccc(S(=O)(=O)c5ccccc5)cc4)CC3)C2=O)C(=O)N1 (stereo not shown) [Compound A340, 3-(6-oxo-1′-(4-(phenylsulfonyl)benzyl)-6,8-dihydro-2H,7H-spiro[furo[2,3-e]isoindole-3,4′-piperidin]-7-yl)piperidine-2,6-dione]	> 500 nM	40 to 60%
CC(C)(O)c1ccc(CN2CCC3(CC2)COc2c3ccc3c2CN(C2CCC(=O)NC2=O)C3=O)cc1 (stereo not shown) [Compound A200, 3-(1′-(4-(2-hydroxypropan-2-yl)benzyl)-6-oxo-6,8-dihydro-2H,7H-spiro[furo[2,3-e]isoindole-3,4′-piperidin]-7-yl)piperidine-2,6-dione]	> 500 nM	< 40%
O=C1CCC(N2Cc3c(ccc4c3OCC43CCN(Cc4ccc(F)cc4Cl)CC3)C2=O)C(=O)N1 (stereo not shown) [Compound A6, 3-(1′-(2-chloro-4-fluorobenzyl)-6-oxo-6,8-dihydro-2H,7H-spiro[furo[2,3-e]isoindoline-3,4′-piperidin]-7-yl)piperidine-2,6-dione]	> 500 nM	< 40%
Cc1c(-c2cccc(CN3CCC4(CC3)COc3c4ccc4c3CN([C@H]3CCC(=O)NC3=O)C4=O)c2)cnn1C [Compound A284, (S)-3-(1′-(3-(1,5-dimethyl-1H-pyrazol-4-yl)benzyl)-6-oxo-6,8-dihydro-2H,7H-spiro[furo[2,3-e]isoindole-3,4′-piperidin]-7-yl)piperidine-2,6-dione]	< 50 nM	60 to 80%
O=C1CCC(N2Cc3c(ccc4c3OCC43CCN(Cc4ccc(Cl)cc4)CC3)C2=O)C(=O)N1 (stereo not shown) [Compound A32]	> 500 nM	< 40%
O=C1CCC(N2Cc3c(ccc4c3OCC43CCN(Cc4ccc(F)cc4)CC3)C2=O)C(=O)N1 (stereo not shown) [Compound A192, 3-(1′-(4-fluorobenzyl)-6-oxo-6,8-dihydro-2H,7H-spiro[furo[2,3-e]isoindole-3,4′-piperidin]-7-yl)piperidine-2,6-dione]	> 500 nM	40 to 60%
O=C1CCC(N2Cc3c(ccc4c3OCC43CCN(Cc4cccc(NC(=O)c5ccc(Cl)cc5)c4)CC3)C2=O)C(=O)N1 (stereo not shown) [Compound A178, 4-chloro-N-(3-((7-(2,6-dioxopiperidin-3-yl)-6-oxo-7,8-dihydro-2H,6H-spiro[furo[2,3-e]isoindole-3,4′-piperidin]-1′-yl)methyl)phenyl)benzamide]	< 50 nM	> 80%
O=C1CCC(N2Cc3c(ccc4c3OCC43CCN(C[C@H]4C[C@@H]4c4ccccc4)CC3)C2=O)C(=O)N1 (relative stereo) [Compound A180, 3-(6-oxo-1′-((trans-2-phenylcyclopropyl)methyl)-6,8-dihydro-2H,7H-spiro[furo[2,3-e]isoindole-3,4′-piperidin]-7-yl)piperidine-2,6-dione]	> 500 nM	< 40%
CN(C)S(=O)(=O)c1ccc(CN2CCC3(CC2)COc2c3ccc3c2CN(C2CCC(=O)NC2=O)C3=O)cc1 (stereo not shown) [Compound A210, 4-((7-(2,6-dioxopiperidin-3-yl)-6-oxo-7,8-dihydro-2H,6H-spiro[furo[2,3-e]isoindole-3,4′-piperidin]-1′-yl)methyl)-N,N-dimethylbenzenesulfonamide]	> 500 nM	< 40%
O=C1CCC(N2Cc3c(ccc4c3OCC43CCN(Cc4cnn(S(=O)(=O)c5ccccc5F)c4)CC3)C2=O)C(=O)N1 (stereo not shown) [Compound A337, 3-(1′-((1-((2-fluorophenyl)sulfonyl)-1H-pyrazol-4-yl)methyl)-6-oxo-6,8-dihydro-2H,7H-spiro[furo[2,3-e]isoindole-3,4′-piperidin]-7-yl)piperidine-2,6-dione]	50 to 200 nM	60 to 80%
O=C1CC[C@H](N2Cc3c(ccc4c3OCC43CCN(Cc4cccc(-c5cnn(C6CC6)c5)c4)CC3)C2=O)C(=O)N1 [Compound A268, (S)-3-(1′-(3-(1-cyclopropyl-1H-pyrazol-4-yl)benzyl)-6-oxo-6,8-dihydro-2H,7H-spiro[furo[2,3-e]isoindole-3,4′-piperidin]-7-yl)piperidine-2,6-dione]	< 50 nM	60 to 80%
O=C1CC[C@H](N2Cc3c(ccc4c3OCC43CCN(Cc4cnn(S(=O)(=O)c5cccc(Cl)c5)c4)CC3)C2=O)C(=O)N1 [Compound A350, (S)-3-(1′-((1-((3-chlorophenyl)sulfonyl)-1H-pyrazol-4-yl)methyl)-6-oxo-6,8-dihydro-2H,7H-spiro[furo[2,3-e]isoindole-3,4′-piperidin]-7-yl)piperidine-2,6-dione]	–	60 to 80%
O=C1CCC(N2Cc3c(ccc4c3OCC43CCN(Cc4cnn(CC5CC5)c4)CC3)C2=O)C(=O)N1 (stereo not shown) [Compound A231, 3-(1′-((1-(cyclopropylmethyl)-1H-pyrazol-4-yl)methyl)-6-oxo-6,8-dihydro-2H,7H-spiro[furo[2,3-e]isoindole-3,4′-piperidin]-7-yl)piperidine-2,6-dione]	200 to 500 nM	60 to 80%
O=C1CCC(N2Cc3c(ccc4c3OCC43CCN(Cc4ccn5nccc5c4)CC3)C2=O)C(=O)N1 (stereo not shown) [Compound A80, 3-(6-oxo-1′-(pyrazolo[1,5-a]pyridin-5-ylmethyl)-6,8-dihydro-2H,7H-spiro[furo[2,3-e]isoindole-3,4′-piperidin]-7-yl)piperidine-2,6-dione]	> 500 nM	< 40%
